Data from patent US6506766B1 (Abbott Laboratories, priority 1998, dated 2003).

Molecular target: T1, human progesterone receptor-A [PRA] isoform (Homo sapiens, UniProt P06401)
T1 construct: host or cells: insect SF21 cells (baculovirus)
T1 sequence (P06401 1-769 isoform P06401-2): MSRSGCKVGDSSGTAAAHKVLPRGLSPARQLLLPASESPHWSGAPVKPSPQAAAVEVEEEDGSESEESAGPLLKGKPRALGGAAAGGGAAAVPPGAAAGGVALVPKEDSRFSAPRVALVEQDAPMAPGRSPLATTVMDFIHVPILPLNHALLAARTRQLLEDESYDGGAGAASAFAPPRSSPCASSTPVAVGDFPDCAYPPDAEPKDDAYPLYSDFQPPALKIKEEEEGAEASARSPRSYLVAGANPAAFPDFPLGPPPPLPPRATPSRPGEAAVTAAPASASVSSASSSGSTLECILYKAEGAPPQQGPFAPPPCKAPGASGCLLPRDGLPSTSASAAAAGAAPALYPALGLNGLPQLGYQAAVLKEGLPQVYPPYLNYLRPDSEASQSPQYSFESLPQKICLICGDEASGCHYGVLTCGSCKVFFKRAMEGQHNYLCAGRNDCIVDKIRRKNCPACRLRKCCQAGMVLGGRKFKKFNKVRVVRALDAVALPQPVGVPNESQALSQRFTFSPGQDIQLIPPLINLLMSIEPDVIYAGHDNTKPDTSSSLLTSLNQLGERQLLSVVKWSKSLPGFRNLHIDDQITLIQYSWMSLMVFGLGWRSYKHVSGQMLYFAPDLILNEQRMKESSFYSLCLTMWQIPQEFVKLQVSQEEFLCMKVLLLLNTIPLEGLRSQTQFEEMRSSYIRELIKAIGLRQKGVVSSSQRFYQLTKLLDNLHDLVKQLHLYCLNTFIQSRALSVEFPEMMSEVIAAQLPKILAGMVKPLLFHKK
Assay: Radioligand binding with human progesterone receptor cytosol ([3H]-progesterone competition)
Details: Ki (nM) PR

In the case of `COC(=O)CN(C)C(=O)Oc1cccc(C2Oc3cccc(OC)c3-c3ccc4c(c32)C(C)=CC(C)(C)N4)c1` (stereo not shown) [Example 311, 2,5-Dihydro-10-methoxy-5-(3-(N-methyl-N-(carbomethoxymethyl)aminocarbonyloxy)phenyl)-2,2,4-trimethyl-1H-[1]benzopyrano[3,4-f]quinoline], the Ki is reported as at least 10000 nM.

Same assay, conditions: PRA cytosol expressed in insect SF21 cells, [3H]Prog ~0.8 nM, 4° C. overnight; Ki by Cheng-Prusoff, KL ~4.5 nM; read-out: Ki (nM) PR

First: COc1cccc2c1-c1ccc3c(c1C(=Cc1ccccc1)O2)C(C)=CC(C)(C)N3 (mixture of isomers) [Example 18, 2,5-Dihydro-10-methoxy-2,2,4-trimethyl-5-(phenylmethylene)-1H-[1]benzopyrano[3,4-f]quinoline]
Second: COc1cccc2c1-c1ccc3c(c1C(Cc1ccccc1)O2)C(C)=CC(C)(C)N3 (stereo not shown) [Example 53, 2,5-Dihydro-10-methoxy-2,2,4-trimethyl-5-(phenylmethyl)-1H-[1]benzopyrano[3,4-f]quinoline]
The Ki of the first is 2.8-fold lower: 1040 nM for the first, 2910 nM for the second.

First: COc1cccc2c1-c1ccc3c(c1C(C1C=CCCCC1)O2)C(C)=CC(C)(C)N3 (mixture of isomers) [Example 144]
Second: COc1cccc2c1-c1ccc3c(c1C(C1C=CCCCCC1)O2)C(C)=CC(C)(C)N3 (stereo not shown) [Example 143, 2,5-Dihydro-10-methoxy-5-(3-cyclooctenyl)-2,2,4-trimethyl-1H-[1]benzopyrano[3,4f]quinoline]
The Ki of the first is higher: at least 10000 nM for the first, 8100 nM for the second. The second binds more tightly here.

Going from `COc1cccc2c1-c1ccc3c(c1C(C1C=CCC1)O2)C(C)=CC(C)(C)N3` (racemic) [Example 136] to `CC1=CC(C)(C)Nc2ccc3c(c21)[C@H]([C@@H]1C=CCC1)Oc1ccc(O)c(Cl)c1-3` [Example 221, (−)2,5(S)-Dihydro-9-hydroxy-10-chloro-2,2,4-trimethyl-5-(3S-cyclopentenyl)-1H-[1]benzopyrano[3,4-f]quinoline], the Ki falls from 2700 nM to 4.2 nM (640-fold). The second binds more tightly here.

Going from `C=CCC1Oc2ccc(OC(=O)CCC(=O)N(C)C)c(Cl)c2-c2ccc3c(c21)C(C)=CC(C)(C)N3` (racemic) [Example 421, (+/−)2,5-Dihydro-9-(4-N,N-dimethylamino-4-oxo-butanoyloxy)-10-chloro-2,2,4-trimethyl-5-allyl-1H-[1]benzopyrano[3,4-f]quinoline] to `C=CCC1Oc2cccc(Cl)c2-c2ccc3c(c21)C(C)=CC(C)(C)N3` (stereo not shown) [Example 309, 10-Chloro-5-(3-propenyl)-2,2,4-trimethyl-2,5-dihydro-1H-[1]benzopyrano[3,4-f]quinoline], the Ki rises from 11.6 nM to 60.7 nM (5.2-fold).

First: COc1cccc2c1-c1ccc3c(c1C(c1cc(Cl)cc(Cl)c1)O2)C(C)=CC(C)(C)N3 (single isomer, unassigned; (+)) [Example 33, (+)-5-(3,5-Dichlorophenyl)-2,5-dihydro-10-methoxy-2,2,4-trimethyl-1H-[1]benzopyrano[3,4-f]quinoline]
Second: CNc1cc(C)cc(C2Oc3cccc(OC)c3-c3ccc4c(c32)C(C)=CC(C)(C)N4)c1 (stereo not shown) [Example 114, 3-(2,5-Dihydro-10-methoxy-2,2,4-trimethyl-1H-[1]benzopyrano[3,4-f]quinolin-5-methyl)-5,N-dimethylbenzenamine]
The Ki of the first is lower: 8320 nM for the first, at least 10000 nM for the second.

Going from `COc1cccc2c1-c1ccc3c(c1C(c1cc(Cl)cc(Cl)c1)O2)C(C)=CC(C)(C)N3` (single isomer, unassigned; (-)) [Example 32, (−)-5-(3,5-Dichlorophenyl)-2,5-dihydro-10-methoxy-2,2,4-trimethyl-1H-[1]benzopyrano[3,4-f]quinoline] to `C#CCOc1cccc(C2Oc3cccc(OC)c3-c3ccc4c(c32)C(C)=CC(C)(C)N4)c1` (stereo not shown) [Example 92, 2,5-Dihydro-10-methoxy-2,2,4-trimethyl-5-[3-(2-propynyloxy)phenyl]-1H-[1]benzopyrano[3,4-f]quinoline], the Ki rises from 1560 nM to at least 10000 nM. The first binds more tightly here.

Compared with `CCC1([C@@H]2Oc3ccc(O)c(OC)c3-c3ccc4c(c32)C(C)=CC(C)(C)N4)CC=CCC1` (single isomer, unassigned; (-)) [Example 263], `COc1c(O)ccc2c1-c1ccc3c(c1C(c1cccs1)O2)C(C)=CC(C)(C)N3` (stereo not shown) [Example 274, 2,5-Dihydro-9-hydroxy-10-methoxy-2,2,4-trimethyl-5-(2-thienyl)-1H-[1]benzopyrano[3,4-f]quinoline] is 6.5-fold higher in Ki: 59.6 nM for the first, 386 nM for the second. The first binds more tightly here.

Going from `COc1cccc2c1-c1ccc3c(c1C(c1cc(Cl)cc(Cl)c1)O2)C(C)=CC(C)(C)N3` (stereo not shown) [Example 19, 5-(3,5-Dichlorophenyl)-2,5-dihydro-10-methoxy-2,2,4-trimethyl-1H-[1]benzopyrano[3,4-f]quinoline] to `C=CCNc1cccc(C2Oc3cccc(OC)c3-c3ccc4c(c32)C(C)=CC(C)(C)N4)c1` (stereo not shown) [Example 117, 3-(2,5-Dihydro-10-methoxy-2,2,4-trimethyl-1H-[1]benzopyrano[3,4-f]quinolin-5-yl)-N-(2-propenyl)benzenamine], the Ki rises from 4970 nM to at least 10000 nM. The first binds more tightly here.

First: CCCCC1Oc2cccc(OC)c2-c2ccc3c(c21)C(C)=CC(C)(C)N3 (stereo not shown) [Example 20, 5-Butyl-2,5-dihydro-10-methoxy-2,2,4-trimethyl-1H-[1]benzopyrano[3,4-f]quinoline]
Second: COc1cccc2c1-c1ccc3c(c1C(CCCO)O2)C(C)=CC(C)(C)N3 (stereo not shown) [Example 69, 2,5-Dihydro-10-methoxy-2,2,4-trimethyl-1H-[1]benzopyrano[3,4-f]quinoline-5-propanol]
The Ki of the first is 10-fold lower: 1680 nM for the first, 17300 nM for the second. The first binds more tightly here.

Going from `COc1cccc2c1-c1ccc3c(c1C(CC(C)=O)O2)C(C)=CC(C)(C)N3` (stereo not shown) [Example 45, 1-(2,5-Dihydro-10-methoxy-2,2,4-trimethyl-1H-[1]benzopyrano[3,4-f]quinolin-5-yl)-2-propanone] to `C=C(Br)CC1Oc2cccc(OC)c2-c2ccc3c(c21)C(C)=CC(C)(C)N3` (stereo not shown) [Example 147, 2,5-Dihydro-10-methoxy-5-(2-bromo-3-propenyl)-2,2,4-trimethyl-1H-[1]benzopyrano[3,4-f]quinoline], the Ki falls from at least 10000 nM to 9300 nM.

Going from `COc1cccc2c1-c1ccc3c(c1C(C)O2)C(C)=CC(C)(C)N3` (stereo not shown) [Example 57, 2,5-Dihydro-10-methoxy-2,2,4,5-tetramethyl-1H-[1]benzopyrano[3,4-f]quinoline] to `COc1cccc2c1-c1ccc3c(c1C(CCO)O2)C(C)=CC(C)(C)N3` (stereo not shown) [Example 199, 2,5-Dihydro-10-methoxy-5-(2-hydroxyethyl)-2,2,4-trimethyl-1H-[1]benzopyrano[3,4-f]quinoline], the Ki rises from 4280 nM to at least 10000 nM.

First: COc1cccc2c1-c1ccc3c(c1C(CCN(C)C)O2)C(C)=CC(C)(C)N3 (stereo not shown) [Example 64, 2,5-Dihydro-10-methoxy-2,2,4,N,N-pentamethyl-1H-[1]benzopyrano[3,4-f]quinoline5-ethanamine]
Second: C=CC(=C)CC1Oc2cccc(OC)c2-c2ccc3c(c21)C(C)=CC(C)(C)N3 (stereo not shown) [Example 172]
The Ki of the first is 5.9-fold lower: 1670 nM for the first, 9900 nM for the second. The first binds more tightly here.

Going from `COc1cccc2c1-c1ccc3c(c1C(CC1=CCCCC1)O2)C(C)=CC(C)(C)N3` (stereo not shown) [Example 145, 2,5-Dihydro-10-methoxy-5-(1-cyclohexenylmethyl)-2,2,4-trimethyl-1H-[1]benzopyrano[3,4-f]quinoline] to `COc1cccc2c1-c1ccc3c(c1C(CC=C1CCCCCC1)O2)C(C)=CC(C)(C)N3` (stereo not shown) [Example 189, 2,5-Dihydro-10-methoxy-5-(2-cycloheptylidenylethyl)-2,2,4-trimethyl-1H-[1]benzopyrano[3,4-f]quinoline], the Ki falls from at least 10000 nM to 1700 nM.

Going from `C=C(CC1Oc2cccc(OC)c2-c2ccc3c(c21)C(C)=CC(C)(C)N3)C(=O)OC` (stereo not shown) [Example 173, 2,5-Dihydro-10-methoxy-5-(2-carbomethoxy-3-propenyl)-2,2,4-trimethyl-1H-[1]benzopyrano[3,4-f]quinoline] to `CCOC(=O)C1Oc2cccc(OC)c2-c2ccc3c(c21)C(C)=CC(C)(C)N3` (stereo not shown) [Example 208, 2,5-Dihydro-10-methoxy-5-(carboethoxy)-2,2,4-trimethyl-1H-[1]benzopyrano[3,4-f]quinoline], the Ki falls from at least 10000 nM to 970 nM. The second binds more tightly here.

Going from `COc1cccc2c1-c1ccc3c(c1C(C1CCCC1)O2)C(C)=CC(C)(C)N3` (stereo not shown) [Example 209, 2,5-Dihydro-10-methoxy-5-(cyclopentyl)-2,2,4-trimethyl-1H-[1]benzopyrano[3,4-f]quinoline] to `COc1cccc2c1-c1ccc3c(c1C(C1CCCCC1)O2)C(C)=CC(C)(C)N3` (stereo not shown) [Example 212, 2,5-Dihydro-10-methoxy-5-(cyclohexyl)-2,2,4-trimethyl-1H-[1]benzopyrano[3,4-f]quinoline], the Ki rises from 5460 nM to at least 10000 nM. The first binds more tightly here.

`CC1=CC(C)(C)Nc2ccc3c(c21)C(c1ccccc1)Oc1ccc2c(c1-3)OCO2` (stereo not shown) [Example 227, 9-10-Methylenedioxy-5-phenyl-2,2,4-trimethyl-1H-2,5-dihydro-[1]benzopyrano[3,4-f]quinoline] and `COc1c(O)ccc2c1-c1ccc3c(c1C(c1ccc(F)c(F)c1)O2)C(C)=CC(C)(C)N3` (stereo not shown) [Example 254, 2,5-Dihydro-9-hydroxy-10-methoxy-2,2,4-trimethyl-5-(3,4-difluorophenyl)-1H-[1]benzopyrano[3,4-f]quinoline] are within 1.5-fold of each other in Ki: 1930 nM for the first, 1820 nM for the second.

`C=CCOc1ccc2c(c1OC)-c1ccc3c(c1C(CC=C)O2)C(C)=CC(C)(C)N3` (stereo not shown) [Example 293, 10-Methoxy-9-(3-propenyloxy)-5-(3-propenyl)-2,2,4-trimethyl-1H-2,5-dihydro[1]benzopyrano[3,4-f]quinoline] gave a Ki of 3740 nM.
